Test results reported in patent US7244431B2, “Allergy vaccines and their preparation” (priority 2000, dated 2007).

Tests used:
[1] = test system: IgE antibodies in sera from birch pollen allergic patients; experiment: ELISA detection of peptide- and rBet v 1-specific IgE antibodies; format: binding, human
Summary of the method: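 IgE binding detected by 1:1000 alkaline-phosphatase mouse monoclonal anti-human IgE after overnight 4 °C incubation with 1:3-diluted sera. Sera came from 60 birch pollen allergic patients (25 male, 35 female, age 19–60) and a non-atopic control.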

[2] = test system: birch pollen allergic patients; experiment: Skin prick testing of allergic patients; format: in vivo, human; details: 100 μg/ml
Description: SPTs were performed on the individuals forearms as described ([…]. et al. (1997) J. Clin Invest. 99, 1673-168; Dreborg S: (1989) J. Am. Acad. DerMatol. 21, 820-821). […] In addition standardized skin prick solutions (birch pollen extract and histamine) (Allergopharma, Reinbek, Germany) were tested. Reactions were recorded 20 minutes after SPT by photography and by transferring the ballpoint pen-surrounded wheal area with a scotch tape to paper.

LFPKVAPQAISSVENIEGNGGPGTIKKISFC [Peptide P2, Bet v 1-derived synthetic peptide, position aa 30-59, one cysteine added]
IgE (OD) ([1]; serum of NHS, non-allergic control individual): — (Dashes indicate reactivities below the cut-off level (OD=0.050)) | IgE (OD) ([1]; serum of patient 1): — (Dashes indicate reactivities below the cut-off level (OD=0.050)) | IgE (OD) ([1]; serum of patient 2): — (Dashes indicate reactivities below the cut-off level (OD=0.050)) | IgE (OD) ([1]; serum of patient 3): — (Dashes indicate reactivities below the cut-off level (OD=0.050)) | IgE (OD) ([1]; serum of patient 4): — (Dashes indicate reactivities below the cut-off level (OD=0.050)) | IgE (OD) ([1]; serum of patient 5): — (Dashes indicate reactivities below the cut-off level (OD=0.050)) | IgE (OD) ([1]; serum of patient 6): — (Dashes indicate reactivities below the cut-off level (OD=0.050)) | IgE (OD) ([1]; serum of patient 7): — (Dashes indicate reactivities below the cut-off level (OD=0.050)) | IgE (OD) ([1]; serum of patient 8): — (Dashes indicate reactivities below the cut-off level (OD=0.050)) | IgE (OD) ([1]; serum of patient 9): — (Dashes indicate reactivities below the cut-off level (OD=0.050)) | IgE (OD) ([1]; serum of patient 10): — (Dashes indicate reactivities below the cut-off level (OD=0.050)) | IgE (OD) ([1]; serum of patient 11): — (Dashes indicate reactivities below the cut-off level (OD=0.050)) | IgE (OD) ([1]; serum of patient 12): — (Dashes indicate reactivities below the cut-off level (OD=0.050)) | IgE (OD) ([1]; serum of patient 13): — (Dashes indicate reactivities below the cut-off level (OD=0.050)) | IgE (OD) ([1]; serum of patient 14): — (Dashes indicate reactivities below the cut-off level (OD=0.050)) | IgE (OD) ([1]; serum of patient 15): — (Dashes indicate reactivities below the cut-off level (OD=0.050)) | IgE (OD) ([1]; serum of patient 16): — (Dashes indicate reactivities below the cut-off level (OD=0.050)) | IgE (OD) ([1]; serum of patient 17): — (Dashes indicate reactivities below the cut-off level (OD=0.050)) | IgE (OD) ([1]; serum of patient 18): — (Dashes indicate reactivities below the cut-off level (OD=0.050)) | IgE (OD) ([1]; serum of patient 19): — (Dashes indicate reactivities below the cut-off level (OD=0.050)) | IgE (OD) ([1]; serum of patient 20): — (Dashes indicate reactivities below the cut-off level (OD=0.050)) | IgE (OD) ([1]; serum of patient 21): — (Dashes indicate reactivities below the cut-off level (OD=0.050)) | IgE (OD) ([1]; serum of patient 22): — (Dashes indicate reactivities below the cut-off level (OD=0.050)) | IgE (OD) ([1]; serum of patient 23): — (Dashes indicate reactivities below the cut-off level (OD=0.050)) | IgE (OD) ([1]; serum of patient 24): — (Dashes indicate reactivities below the cut-off level (OD=0.050)) | IgE (OD) ([1]; serum of patient 25): — (Dashes indicate reactivities below the cut-off level (OD=0.050)) | IgE (OD) ([1]; serum of patient 26): — (Dashes indicate reactivities below the cut-off level (OD=0.050)) | IgE (OD) ([1]; serum of patient 27): — (Dashes indicate reactivities below the cut-off level (OD=0.050)) | IgE (OD) ([1]; serum of patient 28): — (Dashes indicate reactivities below the cut-off level (OD=0.050)) | IgE (OD) ([1]; serum of patient 29): — (Dashes indicate reactivities below the cut-off level (OD=0.050)) | IgE (OD) ([1]; serum of patient 30): — (Dashes indicate reactivities below the cut-off level (OD=0.050)) | IgE (OD) ([1]; serum of patient 31): — (Dashes indicate reactivities below the cut-off level (OD=0.050)) | IgE (OD) ([1]; serum of patient 32): — (Dashes indicate reactivities below the cut-off level (OD=0.050)) | IgE (OD) ([1]; serum of patient 33): — (Dashes indicate reactivities below the cut-off level (OD=0.050)) | IgE (OD) ([1]; serum of patient 34): — (Dashes indicate reactivities below the cut-off level (OD=0.050)) | IgE (OD) ([1]; serum of patient 35): — (Dashes indicate reactivities below the cut-off level (OD=0.050)) | IgE (OD) ([1]; serum of patient 36): — (Dashes indicate reactivities below the cut-off level (OD=0.050)) | IgE (OD) ([1]; serum of patient 37): — (Dashes indicate reactivities below the cut-off level (OD=0.050)) | IgE (OD) ([1]; serum of patient 38): — (Dashes indicate reactivities below the cut-off level (OD=0.050)) | IgE (OD) ([1]; serum of patient 39): — (Dashes indicate reactivities below the cut-off level (OD=0.050)) | IgE (OD) ([1]; serum of patient 40): — (Dashes indicate reactivities below the cut-off level (OD=0.050)) | IgE (OD) ([1]; serum of patient 41): — (Dashes indicate reactivities below the cut-off level (OD=0.050)) | IgE (OD) ([1]; serum of patient 42): — (Dashes indicate reactivities below the cut-off level (OD=0.050)) | IgE (OD) ([1]; serum of patient 43): — (Dashes indicate reactivities below the cut-off level (OD=0.050)) | IgE (OD) ([1]; serum of patient 44): — (Dashes indicate reactivities below the cut-off level (OD=0.050)) | IgE (OD) ([1]; serum of patient 45): — (Dashes indicate reactivities below the cut-off level (OD=0.050)) | IgE (OD) ([1]; serum of patient 46): — (Dashes indicate reactivities below the cut-off level (OD=0.050)) | IgE (OD) ([1]; serum of patient 47): — (Dashes indicate reactivities below the cut-off level (OD=0.050)) | IgE (OD) ([1]; serum of patient 48): — (Dashes indicate reactivities below the cut-off level (OD=0.050)) | IgE (OD) ([1]; serum of patient 49): — (Dashes indicate reactivities below the cut-off level (OD=0.050)) | IgE (OD) ([1]; serum of patient 50): — (Dashes indicate reactivities below the cut-off level (OD=0.050)) | IgE (OD) ([1]; serum of patient 51): — (Dashes indicate reactivities below the cut-off level (OD=0.050)) | IgE (OD) ([1]; serum of patient 52): — (Dashes indicate reactivities below the cut-off level (OD=0.050)) | IgE (OD) ([1]; serum of patient 53): — (Dashes indicate reactivities below the cut-off level (OD=0.050)) | IgE (OD) ([1]; serum of patient 54): — (Dashes indicate reactivities below the cut-off level (OD=0.050)) | IgE (OD) ([1]; serum of patient 55): — (Dashes indicate reactivities below the cut-off level (OD=0.050)) | IgE (OD) ([1]; serum of patient 56): — (Dashes indicate reactivities below the cut-off level (OD=0.050)) | IgE (OD) ([1]; serum of patient 57): — (Dashes indicate reactivities below the cut-off level (OD=0.050)) | IgE (OD) ([1]; serum of patient 58): — (Dashes indicate reactivities below the cut-off level (OD=0.050)) | IgE (OD) ([1]; serum of patient 59): — (Dashes indicate reactivities below the cut-off level (OD=0.050)) | IgE (OD) ([1]; serum of patient 60): — (Dashes indicate reactivities below the cut-off level (OD=0.050)) | mean wheal diameter ([2]; individual 1): 0 mm | mean wheal diameter ([2]; individual 2): 0 mm | mean wheal diameter ([2]; individual 3): 0 mm | mean wheal diameter ([2]; individual 4): 0 mm | mean wheal diameter ([2]; individual 5): 0 mm | mean wheal diameter ([2]; individual 6 (allergic, without birch pollen allergy)): 0 mm
